Holding throughout (assay): inhibition of tumour cell growth, NCI panel, 48 h
In test [1] the test system is KM12 colon.
Test [2] has as its system SF-539 CNS.
Test [3] concerns OVCAR-5 ovarian.
For test [4], the system named is NCI-H522 lung.
In test [5] the test system is LOX IMVI melanoma.
Test [6] deals with A549 NSCLC.
Test [7] concerns ACHN renal.
Test [8] has as its system HCT-15 colon.
For test [9], the system named is SF-268 CNS.
Test [10] concerns BT-549 breast.

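Cultured in 96-well plates, cells were exposed to test compound for 48 hours across five concentrations. GI50 = concentration required for 50% inhibition of growth. The concentration for full growth arrest is given as TGI.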

As for `COc1c(C(=O)/C(=N/Nc2ccc(C(=O)O)cc2)C(C)=O)c(O)cc2occc12`, the TGI in test [1], in test [2], in test [3], in [4], in test [5] and in test [6] was more than 100 µM in each case. Moreover, the TGI in test [7], in test [8] and in [9] was more than 100 µM throughout.

Regarding `CC(O)C(CO)NC(=O)C1CSSCC(NC(=O)C(N)Cc2ccccc2)C(=O)NC(Cc2ccccc2)C(=O)NC(Cc2c[nH]c3ccccc23)C(=O)NC(CCCCN)C(=O)NC(C(C)O)C(=O)N1` (configuration not stated), the TGI in [1], in test [2], in [3], in [4], in test [5] and in test [6] was more than 100 µM each time. The TGI in [7], in [8] and in test [9] was more than 100 µM each time.

For `COC(=O)c1ccc(OCCn2nnc(C(=O)NN)c2C(=O)NN)cc1`, the TGI in test [1], in test [10], in test [3], in test [5], in test [6] and in [7] was more than 100 µM in each case. Further, in test [8], the TGI was more than 100 µM.

Take `COc1cc(/C=C2\C(=O)N(c3cccc(NC(C)=O)c3)C(c3ccccc3)S2(=O)=O)cc(OC)c1OC` (configuration not stated): the TGI in test [1], in test [2], in test [10], in test [3], in test [4] and in [5] was more than 100 µM in each case. For the same molecule, the TGI in [6], in test [7] and in [8] was more than 100 µM throughout.

Regarding `O=C(Cn1c2ccc(Br)cc2c2nc3ccccc3nc21)NCc1ccccc1`, the TGI is more than 100 µM in test [1]; more than 100 µM in test [10]; more than 100 µM in [3]; more than 100 µM in [5]; more than 100 µM in test [6]; 41.7 µM in test [7]. The TGI in [8] and in [9] was more than 100 µM in each case.

As to `COC(=O)[C@@]12CSC[C@]1(C(=O)OC)N[C@@H](c1ccccc1O)C2`, the TGI in test [1], in test [2], in test [10], in [3], in test [4] and in test [6] was more than 100 µM in each case. In addition, the TGI in test [7], in test [8] and in test [9] was more than 100 µM throughout.

Consider `CC(C)CC1c2[nH]c3ccccc3c2C[C@H]2C(=O)NC(Cc3c[nH]c4ccccc34)C(=O)N12` (some centres not stated), for which the TGI in test [1] is 28.8 µM; in [10], 36.2 µM; in test [3], 48 µM; in test [4] it was 29.5 µM; in test [5], 31.1 µM; in [6], 71 µM. Moreover, the TGI in [7] came to 60 µM; in test [8] it was 47.2 µM; in [9], 56.3 µM.

With `O=C1CCCC2=C1CC1=C(CCCC1=O)N2c1ccc(Cl)cc1`, the TGI in test [1], in test [2], in test [10], in [3], in test [5] and in [6] was more than 100 µM in each case. Also, the TGI in test [7], in [8] and in test [9] was more than 100 µM in each case.

`CCC1(O)C(=O)OCc2c1cc1n(c2=O)Cc2cc3cc4c(cc3nc2-1)OCO4` (configuration not stated): the GI50 in test [1] is 0.0978 µM; in test [10], less than 0.01 µM. Also, the TGI in test [1] is 5.69 µM; in [10], more than 100 µM; in [3] it was 0.693 µM; in test [4], 0.383 µM; in test [5] it was 0.0688 µM; in test [6] it was 0.259 µM. In addition, the TGI was determined as 19 µM in [8] and 0.761 µM in test [9].

Turning to `CN(C)N1C(=O)C(=O)N(c2cccc3ccccc23)C1=O`, the TGI in test [1], in [2], in test [3], in test [4], in [5] and in test [6] was more than 10 µM in each case. Besides, the TGI in [7], in test [8] and in test [9] was more than 10 µM in each case.

Regarding `Cc1cccc2c(=O)c3cccc([C@H](C)C(=O)O)c3oc12`, the TGI in test [1], in test [2], in test [10], in test [4], in test [5] and in test [6] was more than 100 µM each time. The TGI in test [7], in test [8] and in [9] was more than 100 µM in each case.

Consider `CCOP(=O)(OCC)C(c1ccc(F)cc1)N(C(=O)NC(F)(F)F)c1ccc(F)cc1` (configuration not stated), for which the TGI in [1], in [2], in test [3], in test [4], in [5] and in test [6] was more than 100 µM in each case. Besides, the TGI in [7], in [8] and in test [9] was more than 100 µM in each case.

Take `O=C1OC(C(O)CO)C(C(O)CO)OC1=O` (configuration not stated): the TGI in test [1], in [2], in [10], in test [3], in test [6] and in [7] was more than 10 µM throughout. Further, the TGI in test [8] and in [9] was more than 10 µM in each case.

`CC(C#N)(NO)C(C)(C#N)NO` (configuration not stated): the TGI in test [1], in test [2], in test [10], in test [3], in test [4] and in test [5] was more than 100 µM in each case. Besides, the TGI in test [6], in [8] and in test [9] was more than 100 µM throughout.

On to `N=C1OC(CN2CCN(c3ccccc3)CC2)CN1C(=O)Nc1ccccc1` (configuration not stated), for which the TGI in [1], in test [10], in test [3], in test [4], in [5] and in test [6] was more than 100 µM throughout. Besides, the TGI in [7], in test [8] and in test [9] was more than 100 µM in each case.

These data come from PubChem BioAssay (NCI).
